Read-outs that look alike come from different tables or passages of the source.
Experiments:
B16 murine melanoma = experiment: Tissue distribution in C57 BL6 mice bearing B16; format: in vivo, mouse
Description: (§1) The study of the tissue distribution of the ^125 I labelled compounds was performed in mice bearing grafted melanomas (cf. autoradiograms above). […] The animals are sacrificed at different time intervals of 1 to 24 hours after the injection. The blood is collected and the principal organs are excised. Aliquots are weighed and the radioactivity of the samples is measured in a […] 1191 counter (analytic tracer). The counting yield for iodine 125 is 60%. The results are expressed: as a percentage of the injected dose bound per g of tissue (% ID/g); in the form of the ratios [formula] This ratio reflects more precisely the selectivity of a molecule for an organ (tables 2, 4, 6, 8, 10 and 12).

[1] = Tissue distribution in Swiss nu/nu SSCUP mice bearing Dau; format: in vivo, human; settings: mouse, iv, 3 umol/animal
Description: as §1

B16 melanoma = experiment: Scintillation imaging, C57 BL6 mice bearing B16; format: in vivo, mouse; settings: 3 to 17 h after injection
Text: (§2) The mice bearing grafted tumors are anesthetized by the i.p. injection of sodium pentobarbital 1/5 and immobilized under a scintillation camera (Gammatome II, CGR) equipped with a pinhole 3-360 collimator, sensitivity 3.2 10^-4.
C57 BL6 bearing B16 melanomas at different stages of development.
(§3) The scanning observations have also been carried out after the injection of B into the following mice:
C57 BL6 bearing the B16 melanoma

[2] = test system: Beu melanic human melanoma; experiment: Scintillation imaging, nu/nu SSCUP nude mice bearing Beu; format: in vivo; settings: 3 to 17 h after injection
Text: as §2
nu/nu SSCUP nudes bearing human melanomas Beu and Dau.
as §3
nu/nu SSCUP nudes bearing the Beu heterotransplant.

[3] = intestine, read-out: intestine % ID/g
[4] = kidney, read-out: kidney % ID/g
[5] = muscle, read-out: muscle % ID/g
[6] = pancreas, read-out: pancreas % ID/g
[7] = plasma, read-out: plasma % ID/g
[8] = spleen, read-out: spleen % ID/g
[9] = stomach, read-out: stomach % ID/g
[10] = submaxillary glands, read-out: submaxillary glands % ID/g

SMILES: CCNCCNC(=O)c1ccc(I)cc1 [Derivative B, N-(2-ethylaminoethyl) 4-iodo benzamide]
- intratumoral concentrations and ratios compared with A (B16 murine melanoma; 4 to 8 h, melanic melanomas, preliminary): markedly higher than those observed with A
- brain/blood ratio (B16 murine melanoma; 1 h): 2,48
- eye/blood ratio (B16 murine melanoma; 1 h): 9,70
- kidney/blood ratio (B16 murine melanoma; 1 h): 10,92
- liver/blood ratio (B16 murine melanoma; 1 h): 5,32
- lungs/blood ratio (B16 murine melanoma; 1 h): 11,00
- muscle/blood ratio (B16 murine melanoma; 1 h): 1,95
- plasma/blood ratio (B16 murine melanoma; 1 h): 0,56
- tumor/blood ratio (B16 murine melanoma; 1 h): 4,70
- brain/blood ratio (B16 murine melanoma; 2 h): 3,11
- eye/blood ratio (B16 murine melanoma; 2 h): 17,50
- kidney/blood ratio (B16 murine melanoma; 2 h): 12,82
- liver/blood ratio (B16 murine melanoma; 2 h): 5,55
- lungs/blood ratio (B16 murine melanoma; 2 h): 11,94
- muscle/blood ratio (B16 murine melanoma; 2 h): 1,96
- plasma/blood ratio (B16 murine melanoma; 2 h): 0,60
- tumor/blood ratio (B16 murine melanoma; 2 h): 8,51
- brain/blood ratio (B16 murine melanoma; 4 h): 4,33
- eye/blood ratio (B16 murine melanoma; 4 h): 39,70
- kidney/blood ratio (B16 murine melanoma; 4 h): 16,38
- liver/blood ratio (B16 murine melanoma; 4 h): 7,58
- lungs/blood ratio (B16 murine melanoma; 4 h): 16,64
- muscle/blood ratio (B16 murine melanoma; 4 h): 2,49
- plasma/blood ratio (B16 murine melanoma; 4 h): 0,79
- tumor/blood ratio (B16 murine melanoma; 4 h): 16,17
- brain/blood ratio (B16 murine melanoma; 6 h): 3,51
- eye/blood ratio (B16 murine melanoma; 6 h): 73
- kidney/blood ratio (B16 murine melanoma; 6 h): 13,04
- liver/blood ratio (B16 murine melanoma; 6 h): 6,80
- lungs/blood ratio (B16 murine melanoma; 6 h): 14,66
- muscle/blood ratio (B16 murine melanoma; 6 h): 1,47
- plasma/blood ratio (B16 murine melanoma; 6 h): 0,90
- tumor/blood ratio (B16 murine melanoma; 6 h): 36
- contrast index of melanic tumors vs neighbouring muscles or organs, compared with A (B16 murine melanoma; 6 hours): the majority of these indices are higher for B than for A
- brain/blood ratio (B16 murine melanoma; 24 h): 0,46
- eye/blood ratio (B16 murine melanoma; 24 h): 200
- kidney/blood ratio (B16 murine melanoma; 24 h): 5,24
- liver/blood ratio (B16 murine melanoma; 24 h): 7,49
- lungs/blood ratio (B16 murine melanoma; 24 h): 1,74
- muscle/blood ratio (B16 murine melanoma; 24 h): 0,75
- plasma/blood ratio (B16 murine melanoma; 24 h): 0,77
- tumor/blood ratio (B16 murine melanoma; 24 h): 16
- concentrations and tumor/blood ratios compared with A (B16 murine melanoma; 24 hours, melanic melanomas, preliminary): lower than those of A
- marker of the B16 murine melanoma (B16 murine melanoma; mouse, in vivo): markers of the B16 murine melanoma
- tissue uptake at 1 h ([1]; blood, read-out: blood % ID/g): 0.89 %ID/g
- tissue uptake at 2 h ([1]; blood, read-out: blood % ID/g): 0.93 %ID/g
- tissue uptake at 4 h ([1]; blood, read-out: blood % ID/g): 0.3 %ID/g
- tissue uptake at 6 h ([1]; blood, read-out: blood % ID/g): 0.53 %ID/g
- tissue uptake at 24 h ([1]; blood, read-out: blood % ID/g): 0.009 %ID/g
- tissue uptake at 8 h ([1]; blood, read-out: blood % ID/g): 0.11 %ID/g
- tissue uptake at 12 h ([1]; blood, read-out: blood % ID/g): 0.015 %ID/g
- tissue uptake at 1 h ([1]; brain, read-out: brain % ID/g): 1.28 %ID/g
- tissue uptake at 2 h ([1]; brain, read-out: brain % ID/g): 1.25 %ID/g
- tissue uptake at 4 h ([1]; brain, read-out: brain % ID/g): 0.63 %ID/g
- tissue uptake at 6 h ([1]; brain, read-out: brain % ID/g): 0.22 %ID/g
- tissue uptake at 24 h ([1]; brain, read-out: brain % ID/g): 0.002 %ID/g
- tissue uptake at 8 h ([1]; brain, read-out: brain % ID/g): 0.14 %ID/g
- tissue uptake at 12 h ([1]; brain, read-out: brain % ID/g): 0.01 %ID/g
- tissue uptake at 1 h ([1]; eye, read-out: eye % ID/g): 0.51 %ID/g
- tissue uptake at 2 h ([1]; eye, read-out: eye % ID/g): 0.5 %ID/g
- tissue uptake at 4 h ([1]; eye, read-out: eye % ID/g): 0.21 %ID/g
- tissue uptake at 6 h ([1]; eye, read-out: eye % ID/g): 0.19 %ID/g
- tissue uptake at 24 h ([1]; eye, read-out: eye % ID/g): 0.008 %ID/g
- tissue uptake at 8 h ([1]; eye, read-out: eye % ID/g): 0.06 %ID/g
- tissue uptake at 12 h ([1]; eye, read-out: eye % ID/g): 0.01 %ID/g
- tissue uptake at 1 h [1, 3]: 3.1 %ID/g
- tissue uptake at 2 h [1, 3]: 2.57 %ID/g
- tissue uptake at 4 h [1, 3]: 1.19 %ID/g
- tissue uptake at 6 h [1, 3]: 1.05 %ID/g
- tissue uptake at 8 h [1, 3]: 0.36 %ID/g
- tissue uptake at 12 h [1, 3]: 0.05 %ID/g
- tissue uptake at 24 h [1, 3]: 0.01 %ID/g
- tissue uptake at 1 h [1, 4]: 8.15 %ID/g
- tissue uptake at 2 h [1, 4]: 6.17 %ID/g
- tissue uptake at 4 h [1, 4]: 2.51 %ID/g
- tissue uptake at 6 h [1, 4]: 1.07 %ID/g
- tissue uptake at 24 h [1, 4]: 0.04 %ID/g
- tissue uptake at 8 h [1, 4]: 0.42 %ID/g
- tissue uptake at 12 h [1, 4]: 0.08 %ID/g
- tissue uptake at 1 h ([1]; liver, read-out: liver % ID/g): 4.95 %ID/g
- tissue uptake at 2 h ([1]; liver, read-out: liver % ID/g): 3.16 %ID/g
- tissue uptake at 4 h ([1]; liver, read-out: liver % ID/g): 1.52 %ID/g
- tissue uptake at 6 h ([1]; liver, read-out: liver % ID/g): 0.74 %ID/g
- tissue uptake at 24 h ([1]; liver, read-out: liver % ID/g): 0.19 %ID/g
- tissue uptake at 8 h ([1]; liver, read-out: liver % ID/g): 0.63 %ID/g
- tissue uptake at 12 h ([1]; liver, read-out: liver % ID/g): 0.2 %ID/g
- tissue uptake at 1 h ([1]; lungs, read-out: lungs % ID/g): 5.35 %ID/g
- tissue uptake at 2 h ([1]; lungs, read-out: lungs % ID/g): 5.56 %ID/g
- tissue uptake at 4 h ([1]; lungs, read-out: lungs % ID/g): 2.63 %ID/g
- tissue uptake at 6 h ([1]; lungs, read-out: lungs % ID/g): 0.93 %ID/g
- tissue uptake at 8 h ([1]; lungs, read-out: lungs % ID/g): 0.43 %ID/g
- tissue uptake at 12 h ([1]; lungs, read-out: lungs % ID/g): 0.04 %ID/g
- tissue uptake at 24 h ([1]; lungs, read-out: lungs % ID/g): 0.02 %ID/g
- tissue uptake at 1 h [1, 5]: 1.04 %ID/g
- tissue uptake at 2 h [1, 5]: 6.86 %ID/g
- tissue uptake at 4 h [1, 5]: 0.41 %ID/g
- tissue uptake at 6 h [1, 5]: 0.12 %ID/g
- tissue uptake at 24 h [1, 5]: 0.002 %ID/g
- tissue uptake at 8 h [1, 5]: 0.07 %ID/g
- tissue uptake at 12 h [1, 5]: 0.008 %ID/g
- tissue uptake at 1 h [1, 6]: 2.86 %ID/g
- tissue uptake at 2 h [1, 6]: 2.13 %ID/g
- tissue uptake at 4 h [1, 6]: 0.83 %ID/g
- tissue uptake at 6 h [1, 6]: 0.4 %ID/g
- tissue uptake at 8 h [1, 6]: 0.14 %ID/g
- tissue uptake at 12 h [1, 6]: 0.08 %ID/g
- tissue uptake at 24 h [1, 6]: 0.01 %ID/g
- tissue uptake at 1 h [1, 7]: 0.71 %ID/g
- tissue uptake at 2 h [1, 7]: 0.85 %ID/g
- tissue uptake at 4 h [1, 7]: 0.28 %ID/g
- tissue uptake at 6 h [1, 7]: 0.61 %ID/g
- tissue uptake at 24 h [1, 7]: 0.009 %ID/g
- tissue uptake at 8 h [1, 7]: 0.13 %ID/g
- tissue uptake at 12 h [1, 7]: 0.02 %ID/g
- tissue uptake at 1 h [1, 8]: 2.54 %ID/g
- tissue uptake at 2 h [1, 8]: 2.02 %ID/g
- tissue uptake at 4 h [1, 8]: 0.62 %ID/g
- tissue uptake at 6 h [1, 8]: 0.33 %ID/g
- tissue uptake at 8 h [1, 8]: 0.14 %ID/g
- tissue uptake at 12 h [1, 8]: 0.05 %ID/g
- tissue uptake at 24 h [1, 8]: 0.09 %ID/g
- tissue uptake at 1 h [1, 9]: 2.38 %ID/g
- tissue uptake at 2 h [1, 9]: 3.03 %ID/g
- tissue uptake at 4 h [1, 9]: 1.23 %ID/g
- tissue uptake at 6 h [1, 9]: 2 ± 0.253 %ID/g
- tissue uptake at 8 h [1, 9]: 0.58 %ID/g
- tissue uptake at 12 h [1, 9]: 0.1 %ID/g
- tissue uptake at 24 h [1, 9]: 0.02 %ID/g
- tissue uptake at 1 h [1, 10]: 4.28 %ID/g
- tissue uptake at 2 h [1, 10]: 4.14 %ID/g
- tissue uptake at 4 h [1, 10]: 1.68 %ID/g
- tissue uptake at 6 h [1, 10]: 2.74 %ID/g
- tissue uptake at 8 h [1, 10]: 0.39 %ID/g
- tissue uptake at 12 h [1, 10]: 0.04 %ID/g
- tissue uptake at 24 h [1, 10]: 0.02 %ID/g
- tissue uptake at 1 h ([1]; tumor, read-out: tumor % ID/g): 1.19 %ID/g
- tissue uptake at 2 h ([1]; tumor, read-out: tumor % ID/g): 1.27 %ID/g
- tissue uptake at 4 h ([1]; tumor, read-out: tumor % ID/g): 0.93 %ID/g
- tissue uptake at 6 h ([1]; tumor, read-out: tumor % ID/g): 0.34 %ID/g
- tissue uptake at 24 h ([1]; tumor, read-out: tumor % ID/g): 0.007 %ID/g
- tissue uptake at 8 h ([1]; tumor, read-out: tumor % ID/g): 0.12 %ID/g
- tissue uptake at 12 h ([1]; tumor, read-out: tumor % ID/g): 0.02 %ID/g
- tumoral definition (B16 melanoma): very good tumoral definition
- tumoral definition [2]: very good tumoral definition
